# Data from patent publication US20060035867A1, “Methods of treating cancer and the pain associated therewith using endothelin antagonists” (priority 2000, published 2006).
# Legend:
# [1] = test system: male subjects with hormone refractory prostate cancer; assay: Bone scan (Tc-99m phosphonate, bone scan index); type: in vivo, human; conditions: 10 mg ABT-627 versus placebo, FIG. 6
# Experimental: (§1) Studies were performed on male subjects with asymptomatic hormone refractory prostate cancer with rising PSA levels and on male subjects with symptomatic hormone refractory prostate cancer with rising PSA levels and pain. Subjects in the phase II studies had castrate levels of testosterone, either due to pharmacologic intervention, via leuprolide (Lupron®) or goserelin (Zoladex®), or via surgical castration. Subjects received ABT-627 or placebo. The following tests were conducted:
# Bone scans were performed with an NDA approved, Tc-99m phosphonate type radiopharmaceutical. […] Each site was evaluated against a confidence score of 1 to 5, where 1 is negative, 2 is probably negative, 3 is equivocal, 4 is probably positive, and 5 is definitely positive. […] In addition, in a blinded study, a reference nuclear medicine physician interpreted the bone scans quantitatively as follows: the percent of involved bone was estimated for each individual bone, and the individual bone involvement was summed to calculate a global percent bone scan index (BSI). […]
# Bone scans were conducted on each subject on day one of the study, and on the final day of the study, and the changes from baseline in bone scan index scores were analysed by mean change and mean percent change, adjusting for baseline characteristics as co-variates using SAS version XXX software.
# [2] = test system: bone alkaline phosphatase (BAP); assay: Bone Alkaline Phosphatase levels (Alkphase-B assay); type: in vivo, human; conditions: hormone refractory prostate cancer subjects; 10 mg ABT-627 vs placebo; AUC in FIG. 5
# Experimental: as §1
# (§2) Markers of osteoblastic activity were assessed using urine samples. Bone markers include bone alkaline phosphatase (BAP), deoxypridinoline, and N-telopeptide of Type I collagen. Blood samples were collected prior to dosing on Day 1, Day 42, Day 84, Day 168, and every 28 days after Day 168, with a final collection on the last day of the study.
# Bone Alkaline Phosphatase levels were determined using the bone-specific Alkphase-B® assay published by Metra Biosystems (Mountain View, Calif.).
# [3] = test system: Chromagranin-A; assay: Chromagranin-A Levels (two site chemiluminescence assay, serum of treated subjects); type: in vivo, human; conditions: hormone refractory prostate cancer subjects, 2.5 mg/day of ABT-627, AUC in FIG. 8
# Experimental: as §1
# (§3) A number of recognized or putative biochemical markers of disease progression have been used to monitor treatment of individuals with prostate cancer. Among these markers are serum Prostate Specific Antigen (PSA), serum acid Phosphatase, Interleukin-6, and Chromagranin-A. As currently accepted, favorable treatment is marked by a decrease or slower rate of increase for PSA, acid phosphatase, and Interleukin-6, while a favorable response is marked by an increase in Chromagranin-A. […]
# The effect of ABT-627 adminstration on Chromagranin-A levels in human serum samples was determined by proprietary assay conducted at the Nichols Institute. […] The bound, acridinium-labeled material produces light that is detected in a luminometer after addition of triggering agents. […]
# [4] = test system: prostate specific antigen (PSA); assay: Prostate Specific Antigen Level Assay (Chiron ACS: Centaur PSA2, serum of treated subjects); type: in vivo, human; conditions: hormone refractory prostate cancer subjects; 2.5 mg or 10 mg ABT-627 vs placebo; AUC in FIG. 2
# Experimental: as §1, §3
# The effect of ABT-627 administeration on prostate specific antigen (PSA) levels in human subject serum samples was determined using the procedure described in the Chiron Diagnostics ACS: Centaur PSA2 Assay. […]
# Briefly, a subject population was treated with a placebo or 2.5 mg or 10 mg of ABT-627. […] A direct relationship exists between the amount of PSA present in the patient sample and the RLU's (relative light units) detected.
# [5] = test system: Interleukin-6; assay: Interleukin-6 Levels (sandwich immunoassay, serum of treated subjects); type: in vivo, human; conditions: hormone refractory prostate cancer subjects, 2.5 mg or 10 mg ABT-627 vs placebo, AUC FIG. 1
# Experimental: as §1, §3
# The effect of ABT-627 adminstration on Interleukin-6 levels in human serum samples was determined at Quintiles Laboratories using a sandwich immunoassay. […] After incubation, the wells were washed, and the bound enzymatic activity was measured using a chromogenic substrate. […]
# [6] = test system: Acid Phosphatase (ACP); assay: Acid Phosphatase Levels (Sigma Diagnostics ACP Procedure No. 435, serum of treated subjects); type: in vivo, human; conditions: hormone refractory prostate cancer subjects, ABT-627 vs placebo, AUC in FIG. 7 (10 mg)
# Experimental: as §1
# A number of recognized or putative biochemical markers of disease progression have been used to monitor treatment of individuals with prostate cancer. […]
# The effect of ABT-627 administeration on Acid Phosphatase levels in human subject serum samples was determined at Quintiles Laboratories using the chemical test described in Sigma Diagnostics Acid Phosphatase (ACP) Procedure No. 435. […] The alpha-naphthol immediately reacts with fast red TR salt to produce a yellow chromophore with an absorbance maximum at 405 nm. The rate of increase in absorbance at 405 nm is directly proportional to ACP activity in the sample. ACP activity was determined in the presence and absence of L-tartrate, the difference being attributed to prostatic acid phosphatase activity. […]
# [7] = test system: male subjects with symptomatic hormone refractory prostate cancer with rising PSA levels and pain; assay: Visual Analog Scale (VAS) pain assessment; type: in vivo, human; conditions: 2.5 mg or 10 mg ABT-627 vs placebo, independent of the effects of morphine, AUC in FIG. 3
# Experimental: as §1, with “conducted: […]” for “conducted:”
# During the course of the study, pain asessments were done daily, at bedtime, by the subject. […] The log also contained a table on which was recorded all daily pain medication consumed by the patient. […] Clinical personnel who received the logs measured the score by measuring the distance (in mm) from the “no pain” end mark to the point where the subject's line crossed the VAS line. […]
# The weekly VAS scores were calculated excluding the lowest and highest score for each week and averaging the remaining five scores. […]
# Weekly VAS scores are examined using a longitudinal analysis method to explore trends over time. The duration of the response, defined as the time from baseline to the last weekly assessment for which the responder definition was satisfied, was analyzed using the Kaplan-Meier methodology and logrank test.
# [8] = test system: Crosslinked N-telopeptide (ICTP) of type I collagen; assay: Crosslinked N-Telopeptide Levels (DiaSorin ICTP radioimmunoassay); type: in vivo; conditions: hormone refractory prostate cancer subjects; 10 mg ABT-627 vs placebo; human serum; AUC in FIG. 4
# Experimental: as §1, §2
# Cross-linked N-telopeptide levels were determined using the DiaSorin (Stillwater, Minn.) assay for the quantitative determination of carboxyterminal cross-linked telopeptide of type I collagen (ICTP) in human serum by equilibrium radioimmunoassay (RIA). Briefly, samples were incubated with the ^125I ICTP tracer and ICTP primary antibody for 2 hours at 37° C. Following the 2 hour incubation, a pre-precipitated second antibody complex was added to separate the bound from free tracer. […] The bound tracer in the pellet was counted with a gamma counter. […]
compound,measurement,setting,value
CCCCN(CCCC)C(=O)CN1C[C@H](c2ccc3c(c2)OCO3)[C@@H](C(=O)O)[C@@H]1c1ccc(OC)cc1 [ABT-627],proportion of total skeletal involvement (bone scan),[1],decrease in the proportion of total skeketal involvement
same,BAP levels,[2],decreased
same,average change from baseline for Chromagranin-A,[3],higher
same,rate of increase of PSA in the serum samples,[4],decreases
same,average change in baseline for Interleukin-6,[5],lower
same,average change from baseline for acid phosphatase,[6],decreased
same,rate of increase for acid phosphatase,[6],decreased
same,VAS scores (pain),[7],decrease in pain
same,Crosslinked N-telopeptide levels,[8],decreased
